This note sets out measurements from ChEMBL document CHEMBL4483862, “Open-source discovery of chemical leads for next-generation chemoprotective antimalarials” (2018).

As a reminder, the IC50 is the concentration needed to halve the response being measured. As usually defined, the IC90 is the point of the concentration-response curve where the effect stands at 90%.

For the experiment, the system named is Plasmodium berghei. Description: Luciferase/luciferin-expressing antifolate-resistant parasites were used to infect a culture of HepG2 cells that were pre-incubated with compounds. Infected hepatocytes emit light due to the luciferase reaction. Assay results are presented as the percent inhibition of light emission compared to control. […]. Type of experiment: functional. The conditions noted are these: sporozoite; for IC90: read-out: LUCIFERASE INFECTION ASSAY - IC90.

[1] abbreviates: read-out: LUCIFERASE INFECTION ASSAY - IC50.

`COc1ccccc1Oc1ccc(C(F)(F)F)cc1NC(=O)c1sc2ccccc2c1Cl`: the IC90 is over 6.91 µM. Further, the half-inhibitory concentration (IC50) under setting [1] is over 6.91 µM.
On to `C=CCN(c1ccccc1)S(=O)(=O)c1cccc(C(=O)Nc2ccc(CCCC)cc2)c1`, for which the IC90 was over 10 µM. In addition, under “FFLUC_HILL_SLOPE 3.89, FFLUC_R_SQUARED 0.431, PBLUC_HILL_SLOPE 2.64, PBLUC_R_SQUARED 0.773, read-out: LUCIFERASE INFECTION ASSAY - IC50”, the half-inhibitory concentration (IC50) came to 5.84 µM.
In the case of `C/C(=N\NC(N)=S)c1csc(-c2ccccc2)n1`, the 90% effect concentration (IC90) was 11.9 µM. For the same compound, the half-inhibitory concentration (IC50) (HEPG2TOX_HILL_SLOPE 1.53, HEPG2TOX_R_SQUARED 0.983, PBLUC_HILL_SLOPE 21.6, PBLUC_R_SQUARED 0.0721, read-out: LUCIFERASE INFECTION ASSAY - IC50) turned out to be 10.7 µM.
Turning to `O=C(NC(=S)NNc1ncc(C(F)(F)F)cc1Cl)c1cccs1`, the concentration for an effect of 90% (IC90) was found to be 1.1 µM. In addition, the IC50 (FFLUC_HILL_SLOPE 14.4, FFLUC_R_SQUARED 0.344, HEPG2TOX_HILL_SLOPE 0.95, HEPG2TOX_R_SQUARED 0.974, PBLUC_HILL_SLOPE 2.04, PBLUC_R_SQUARED 0.707, read-out: LUCIFERASE INFECTION ASSAY - IC50) was found to be 0.374 µM.
As to `CC1CCc2ccccc2N1CC(=O)c1cccn1C` (stereo unspecified), the IC90 is over 10 µM. Moreover, where the note is “HEPG2TOX_HILL_SLOPE 5.07, HEPG2TOX_R_SQUARED 0.0101, read-out: LUCIFERASE INFECTION ASSAY - IC50”, the half-inhibitory concentration (IC50) is over 10 µM.
As to `Cc1ccc(NC(=O)/C=C/c2c(C)nn(CC(C)C)c2Cl)cc1`, the IC90 is over 10 µM. Besides, the 50% inhibitory concentration (IC50) (HEPG2TOX_HILL_SLOPE 7.42, HEPG2TOX_R_SQUARED 0.403, read-out: LUCIFERASE INFECTION ASSAY - IC50) is over 10 µM.
Take `CCC(C)NC(=O)c1c(NC(=O)c2cccc(C(F)(F)F)c2)nc2ccc(C)cn12` (stereo unspecified): the 90% effect concentration (IC90) came to 2.99 µM. For the same compound, the concentration for half-maximal inhibition (IC50) (PBLUC_HILL_SLOPE 12.7, PBLUC_R_SQUARED 0.269, read-out: LUCIFERASE INFECTION ASSAY - IC50) is 2.52 µM.
As to `Cc1ccc(-c2cc(C(=O)Nc3nnc(C(C)C)s3)[nH]n2)c(O)c1C`, the IC90 was over 9.23 µM. Further, the IC50 under setting [1] is over 9.23 µM.
Regarding `CN(C)c1ccccc1-c1cnc2sc(NCCc3ccncc3)nn12`, the IC90 is over 9.05 µM. Besides, the concentration for half-maximal inhibition (IC50) (HEPG2TOX_HILL_SLOPE 0.921, HEPG2TOX_R_SQUARED 0.497, read-out: LUCIFERASE INFECTION ASSAY - IC50) is over 9.05 µM.
On to `O=C1CC(c2c(F)cccc2Cl)CC2=Nc3ccccc3NC(c3ccc(Cl)cc3)C12` (stereo unspecified), for which the IC90 was over 7.28 µM. Also, the half-maximal inhibitory concentration (IC50) (HEPG2TOX_HILL_SLOPE 0.118, HEPG2TOX_R_SQUARED 0.0386, read-out: LUCIFERASE INFECTION ASSAY - IC50) is over 7.28 µM.
Turning to `Nc1nc2c(c(C(F)(F)F)n1)CCc1ccccc1-2`, the IC90 was over 12.4 µM. Under setting [1], the IC50 was over 12.4 µM.
As to `CCOc1cccc(-c2cn3c(-c4ccc5c(ccn5C)c4)cnc3cn2)c1`, the IC90 is 0.0637 µM. Under “HEPG2TOX_HILL_SLOPE 0.658, HEPG2TOX_R_SQUARED 0.817, PBLUC_HILL_SLOPE 2.41, PBLUC_R_SQUARED 0.611, read-out: LUCIFERASE INFECTION ASSAY - IC50”, the IC50 turned out to be 0.0256 µM.
As to `c1ccc(CCNc2nccc3nc(-c4ccccc4)[nH]c23)cc1`, the concentration for an effect of 90% (IC90) is 4.09 µM. Also, the concentration for half-maximal inhibition (IC50) (HEPG2TOX_HILL_SLOPE 7.38, HEPG2TOX_R_SQUARED 0.753, PBLUC_HILL_SLOPE 1.8, PBLUC_R_SQUARED 0.435, read-out: LUCIFERASE INFECTION ASSAY - IC50) worked out at 1.21 µM.
With `NC(=O)c1ccc(-c2cc(-c3cccc(F)c3)cnc2N)cc1`, the 90% effect concentration (IC90) was 10.5 µM. For the same compound, for the setting “PBLUC_HILL_SLOPE 18, PBLUC_R_SQUARED 0.175, read-out: LUCIFERASE INFECTION ASSAY - IC50”, the half-maximal inhibitory concentration (IC50) was determined as 9.29 µM.
Turning to `COc1ccccc1CNC(=O)NC(C)c1ccc(Cl)cc1Cl` (stereo unspecified), the IC90 was over 10 µM. The IC50 under setting [1] was over 10 µM.
On to `O=C(Nc1nc2ccc(Oc3ccccc3)cc2s1)c1ccoc1`, for which the concentration for an effect of 90% (IC90) is over 10 µM. Further, the half-maximal inhibitory concentration (IC50) (HEPG2TOX_HILL_SLOPE 2.54, HEPG2TOX_R_SQUARED 0.824, PBLUC_HILL_SLOPE 3.93, PBLUC_R_SQUARED 0.329, read-out: LUCIFERASE INFECTION ASSAY - IC50) was found to be 7.66 µM.
With `CC1=CC(C)(C)N(C(=O)c2ccc(F)cc2)c2cc3c(cc21)OCO3`, the IC90 was over 9.72 µM. In addition, under “PBLUC_HILL_SLOPE 1.83, PBLUC_R_SQUARED 0.549, read-out: LUCIFERASE INFECTION ASSAY - IC50”, the IC50 is 6.14 µM.
In the case of `Cn1c(-c2cc3c(s2)CCC(C(C)(C)C)C3)n[nH]c1=S` (stereo unspecified), the IC90 came out at 7.62 µM. The concentration for half-maximal inhibition (IC50) (HEPG2TOX_HILL_SLOPE 1.61, HEPG2TOX_R_SQUARED 0.989, PBLUC_HILL_SLOPE 2.28, PBLUC_R_SQUARED 0.71, read-out: LUCIFERASE INFECTION ASSAY - IC50) was determined as 2.9 µM.
For `Cc1cc(N2CCN(C(=O)C(C)Oc3ccc(F)cc3)CC2)nc(C(C)C)n1` (stereo unspecified), the IC90 was over 10 µM. For the same compound, the concentration for half-maximal inhibition (IC50) under setting [1] is over 10 µM.
With `Cc1ccccc1OCC(O)CN(CC(C)C)CC(C)C` (stereo unspecified), the IC90 is over 10 µM. In addition, where the note is “PBLUC_HILL_SLOPE 6.96, PBLUC_R_SQUARED 0.782, read-out: LUCIFERASE INFECTION ASSAY - IC50”, the IC50 came out at 8.86 µM.
With `CCN(c1ccccc1)S(=O)(=O)c1ccc(Cl)c(C(=O)Nc2ccn(C)n2)c1`, the IC90 was over 10 µM. The IC50 under setting [1] was over 10 µM.
In the case of `C/C(=N\NC(N)=S)c1ccccn1`, the concentration for an effect of 90% (IC90) is 2.4 µM. Besides, the IC50 (HEPG2TOX_HILL_SLOPE 1.14, HEPG2TOX_R_SQUARED 0.913, PBLUC_HILL_SLOPE 1.97, PBLUC_R_SQUARED 0.843, read-out: LUCIFERASE INFECTION ASSAY - IC50) was determined as 0.788 µM.
Regarding `C/C(=N\NC(=N)N)c1ccc(C2CCCCC2)cc1`, the IC90 is over 10 µM. Further, the half-maximal inhibitory concentration (IC50) (HEPG2TOX_HILL_SLOPE 4.72, HEPG2TOX_R_SQUARED 0.94, read-out: LUCIFERASE INFECTION ASSAY - IC50) was over 10 µM.
Turning to `CC1CCCN(c2ccc(C#N)cn2)C1` (stereo unspecified), the IC90 was over 10 µM. Further, the IC50 (HEPG2TOX_HILL_SLOPE 1.55, HEPG2TOX_R_SQUARED 0.88, PBLUC_HILL_SLOPE 1.47, PBLUC_R_SQUARED 0.333, read-out: LUCIFERASE INFECTION ASSAY - IC50) was over 10 µM.
Consider `Cc1nc(Sc2ncnc3sc4c(c23)CCC4)sc1CC(N)=O`, for which the IC90 came to 1.96 µM. In addition, where the note is “PBLUC_HILL_SLOPE 51.2, PBLUC_R_SQUARED 0.477, read-out: LUCIFERASE INFECTION ASSAY - IC50”, the IC50 is 1.88 µM.
With `N#C/C(=C1/SC=C(c2ccc(-c3ccccc3)cc2)N1c1ccccc1)c1nnc2n1CCCCC2`, the IC90 was 3.6 µM. For the same compound, the IC50 (HEPG2TOX_HILL_SLOPE 7.81, HEPG2TOX_R_SQUARED 0.359, PBLUC_HILL_SLOPE 26.3, PBLUC_R_SQUARED 0.88, read-out: LUCIFERASE INFECTION ASSAY - IC50) was determined as 3.31 µM.
In the case of `CC1(C)C2CCC1(C)C(NC(=O)COc1ccc(Br)cc1Cl)C2` (stereo unspecified), the IC90 was 8.17 µM. Under “HEPG2TOX_HILL_SLOPE 4.37, HEPG2TOX_R_SQUARED 0.564, PBLUC_HILL_SLOPE 4.64, PBLUC_R_SQUARED 0.01, read-out: LUCIFERASE INFECTION ASSAY - IC50”, the IC50 worked out at 5.08 µM.
For `Cc1cc(C)c(N/C=C2/C(=O)N(c3ccccc3Cl)C(=O)c3ccccc32)c(C)c1`, the IC90 is over 10 µM. For the same compound, the IC50 under setting [1] was over 10 µM.
As for `COc1ccc(C2=C(NCCc3ccccc3)c3ccccc3C2=O)cc1`, the 90% effect concentration (IC90) was determined as 0.404 µM. In addition, the 50% inhibitory concentration (IC50) (FFLUC_HILL_SLOPE 105, FFLUC_R_SQUARED 0.774, PBLUC_HILL_SLOPE 1.53, PBLUC_R_SQUARED 0.754, read-out: LUCIFERASE INFECTION ASSAY - IC50) came to 0.096 µM.
Take `Cc1noc(CSc2nnc(Nc3ccc(OC(F)(F)F)cc3)s2)n1`: the IC90 was over 10 µM. For the same compound, the IC50 (HEPG2TOX_HILL_SLOPE 3.01, HEPG2TOX_R_SQUARED 0.966, PBLUC_HILL_SLOPE 1.72, PBLUC_R_SQUARED 0.424, read-out: LUCIFERASE INFECTION ASSAY - IC50) was found to be 4.45 µM.
Turning to `Cn1cc(/C=C/C(=O)c2ccc(-c3ccc(F)cc3)s2)cn1`, the 90% effect concentration (IC90) is over 10 µM. Under setting [1], the IC50 is over 10 µM.
Consider `CC(C)(C)c1ccccc1NC(=O)Nc1nc(C(N)Cc2ccccc2)cs1` (stereo unspecified), for which the 90% effect concentration (IC90) is 7.79 µM. The 50% inhibitory concentration (IC50) under setting [1] worked out at 4.59 µM.
With `Cc1ccccc1-n1c(Sc2ncccc2[N+](=O)[O-])nc2ccccc2c1=O`, the IC90 is over 10 µM. Moreover, the half-inhibitory concentration (IC50) under setting [1] was over 10 µM.
As for `COc1ccc(Cc2nn3c(C(=S)NCCCN4CCOCC4)c(-c4ccc(Cl)cc4)c4c3n2CCCC4)cc1`, the IC90 was over 10 µM. Moreover, where the note is “PBLUC_HILL_SLOPE 10, PBLUC_R_SQUARED 0.392, read-out: LUCIFERASE INFECTION ASSAY - IC50”, the IC50 worked out at 8.06 µM.
Turning to `CCCCNC(=O)c1c(NC(=O)c2cccc(OC)c2)nc2ccccn12`, the IC90 was 4.95 µM. Further, the concentration for half-maximal inhibition (IC50) (HEPG2TOX_HILL_SLOPE 2.8, HEPG2TOX_R_SQUARED 0.959, PBLUC_HILL_SLOPE 5.29, PBLUC_R_SQUARED 0.462, read-out: LUCIFERASE INFECTION ASSAY - IC50) turned out to be 3.27 µM.
For the compound `Fc1ccc(NC(=S)N2CCN(c3ncnc4sccc34)CC2)c(F)c1`, the IC90 turned out to be 2.97 µM. The IC50 (HEPG2TOX_HILL_SLOPE 0.955, HEPG2TOX_R_SQUARED 0.941, PBLUC_HILL_SLOPE 17.3, PBLUC_R_SQUARED 0.219, read-out: LUCIFERASE INFECTION ASSAY - IC50) was found to be 2.62 µM.
For `CC(C)(C)C(=O)N1CCC(C(=O)N(Cc2ccccc2)c2nc3c(s2)CCCC3)CC1`, the IC90 is over 10 µM. For the same compound, under setting [1], the IC50 is over 10 µM.
As to `O=C(O)CCCNC(=O)CCn1nnc2ccccc2c1=O`, the concentration for an effect of 90% (IC90) was over 10.8 µM. Moreover, the half-maximal inhibitory concentration (IC50) under setting [1] is over 10.8 µM.
